Values joined by “and” are separate entries in the source; they are usually repeats but may differ in a detail not shown here. Identical values can stand only once.
Legend:
[1] = system: BRCA2, ATR and BLM mRNA expression; test: qPCR of DDR transcripts in OCI-AML5; type: cell-based, H. sapiens; settings: OCI-AML5, 4 h; S656 5 μM, THZ531 200 nM; normalized to HPRT, DMSO = 1
Procedure: RNA was harvested in Trizol (ThermoFisher) and isolated according to manufacturer’s protocol and reverse transcribed using MMLV reverse transcriptase and random primers (ThermoFisher). Quantitative PCR was performed using validated assays designed for the Universal Probe Library (Roche) on the Viia7 (Applied Biosystems). qPCR primer sequences are available in Table EV2. Relative quantity of target is normalized to HPRT and compared to normalized expression of control cells.

[2] = system: OCI-AML5 cells; test: Cell cycle profile (Hoechst 33342 flow cytometry); type: cell-based, H. sapiens; settings: 24 h
Procedure: For cell cycle experiments, 500,000 cells in exponential growth phase were incubated in pre-warmed media containing 10 μg/mL Hoechst 33342 during 45 min in incubator (37 °C in 5% CO2). After wash, cells were resuspended in cold media and recorded on BD FACSCelesta cytometer at low flow rate and analyzed with FlowJo v10 (Tree Star).

[3] = system: CD34+ cord blood cells; test: Chemical screen / dose response on CD34+ cord blood cells; type: cell-based, Human
Procedure: Fresh umbilical cord blood units were collected from consenting donors according to ethically approved procedures at St Justine, Maisonneuve-Rosemont (Montréal, QC, Canada) and Charles Le Moyne (Longueuil, QC, Canada, approval reference number AA-HCLM-16-014) Hospitals. Human CD34^+ cells were isolated using the EasySep Human Cord Blood CD34^+ Selection Kit through positive magnetic selection. Chemical screen was performed as described in primary AML with the following modifications: 2000 cord blood cells were seeded, CB media contains StemSpan-ACF supplemented with 100 ng/mL SCF, 100 ng/mL FLT3L, 50 ng/mL TPO, 10 μg/mL LDL, 1× glutamax, gentamicin (50 μg/mL), ciprofloxacin (10 μg/mL), SR1 (500 nmol/L) and UM729 (500 nmol/L).
Dose-response assays in primary AML specimens were performed as in chemical screen (see above) with the exception that compounds were tested in serial dilution (8 dilutions, 1:4, 10 μM down to 0.5 nM). Dose-response assays in OCI-AML5 cell line were conducted similarly with the following modifications: 300 cells per well were seeded in 50 μL of cell line media and cell viability was evaluated after 4 days in culture.

[4] = system: tumor growth; set-up: method as in Dieter et al. (PMID34289372); settings: orally in mice, 20 mg/kg, 5 days per week; ref Dieter et al. (PMID34289372); cited from earlier work

Row | SMILES | ATR mRNA [1] | BRCA2 mRNA [1] | percentage of cells in G1 ([2]; S656 1uM) | percentage of cells in G2/M ([2]; S656 1uM) | percentage of cells in S ([2]; S656 1uM) | percentage of cells in G1 ([2]; S656 3uM) | percentage of cells in G2/M ([2]; S656 3uM) | percentage of cells in S ([2]; S656 3uM) | IC50 ([3]; Homo sapiens, dose-response, read-out: IC50 on purified CD34+ cells from cord blood) [nM] | activity against CD34+ cord blood cells ([3]; discovery screen, 1 μM, 6 days) | tolerability in animals [4] | tumor growth in vivo [4]
1 | CN(C)c1ccc(CC(=O)Nc2ncc(SCc3cccnc3)s2)cc1 [S656] | 0.3 and 0.2683 and 0.3666 | 0.127 and 0.1345 and 0.2247 | 50.8% and 63.1% and 58.6% | 26.6% and 23.9% and 22.5% | 21.5% and 12.1% and 18.1% | 69.1% and 60.5% and 65.7% | 17.7% and 29.1% and 24.3% | 12% and 9.62% and 8.06% | 1310 | low activity |  | 
2 | Cn1cc(-n2cnc3c(NCc4nc5cc(Cl)c(Cl)cc5[nH]4)nc(N4CCOCC4)nc32)cn1 [SR4835] |  |  |  |  |  |  |  |  |  |  | well tolerated | effectively inhibited tumor growth
